Key:
Assay type in all cases: in vivo
[1] = test system: Pyricularia oryzae; settings: 500 ppm; preventive spray, rice
[2] = test system: Helicoverpa armigera; experiment: Leaf dip method (tomato leaves), Bacillus thuringiensis mixture against Helicoverpa armigera (Example D); settings: 0.1 ppm; 72 h
Text: (§1) In which E represents the expected percentage of inhibition of the pests for the combination of two insecticides or one insecticide and one fungicide at defined doses (for example equal to x and y respectively), x is the percentage of inhibition observed for the pest/disease by the compound (1) at a given dose (equal to x), y is the percentage of inhibition observed for the pest/disease by the compound (2) or (3) at a defined dose (equal to y). When the percentage of inhibition observed for the combination is greater than E, there is a synergistic effect.
(§2) The leaf dip method was used, wherein the required quantity of the compounds were weighed and dissolved in a test solution prepared in tubes. The tubes were put on a vortex at 2000 rpm for 90 min for proper mixing and then, for the single compounds, diluted with a 0.01% Triton-X solution, for the combinations, diluted with a 0.01% Triton-X solution containing formulated Bt, to get the desired test concentrations. Tomato leaves were dipped in the solution for 10 seconds, shade dried for 20 min and then transferred to single cells of the bioassay trays. […] Observations on dead, moribund and live larvae were recorded at 72 h after the release. Percent mortality was calculated by combining dead and moribund larvae and comparing the result to the one of the untreated control. […]

[3] = test system: Spodoptera litura; experiment: Leaf dip method (tomato leaves), Bacillus thuringiensis mixture against Spodoptera litura (Example E); settings: 0.1 ppm; 72 h
Text: as §1
as §2, with “concentration.” for “concentrations.”, “results” for “result”

[4] = test system: Helicoverpa armigera; experiment: Diet incorporation method against Helicoverpa armigera (Example A); settings: Helicoverpa armigera, 96 h, read-out: Observed Efficacy (%)
Text: as §1
The diet incorporation method was used, in which semi-synthetic diet was incorporated into the test solutions consisting either of the single compounds or respective compound combinations, when the temperature was approximately 50° C. in the bio-assay containers, then stirred thoroughly for proper mixing and allowed to cool for 30 min. The solidified diet was cut into equal pieces, and then each piece was transferred into one cell of a bio-assay tray. A single starved third instar larva was released into each of these cells of the bio-assay trays and the tray was covered with a lid. The bio-assay trays were kept under laboratory conditions at a temperature of 25° C. and relative humidity of 70%. Observations on dead, moribund and live larvae were recorded 96 h after the release of the larvae. Percent mortality was calculated by combining dead and moribund larvae and comparing the result to the one of the untreated control. The results are shown for the compound of formula (I-1) in Table A.

[5] = test system: Plutella xylostella; experiment: Leaf dip method (cabbage) against Plutella xylostella (Example C); settings: Plutella xylostella, foliar, 72 h, read-out: Observed Efficacy (%)
Text: as §1
The leaf dip method was used, wherein the required quantity of the compound or respective compound combinations were weighed and dissolved in a test solution prepared in tubes. The tubes were put on a vortex at 2000 rpm for 90 min for proper mixing and then diluted with a 0.01% Triton-X solution to the desired test concentration. Cabbage leaves were dipped into the solution for 10 seconds, shade dried for 20 min and then transferred to single cells of bioassay trays. A single second instar larva was released into each cell and the tray was covered with a lid. The bio-assay trays were kept under laboratory conditions at a temperature of 25° C. and relative humidity of 70%. Observations on dead, moribund and live larvae were recorded 72 h after the release. Percent mortality was calculated by combining dead and moribund larvae and comparing the result with the one of the untreated control. The results are shown for compound of formula (I-1) in Table C.

`Cc1cc(Cl)cc(C(=O)NC(C)(C)C)c1NC(=O)c1cc(OC2CS(=O)(=O)C2)nn1-c1ncccc1Cl` [Compound (I-1), N-(2-(tert-butylcarbamoyl)-4-chloro-6-methylphenyl)-1-(3-chloropyridin-2-yl)-3-((1,1-dioxidothietan-3-yl)oxy)-1H-pyrazole-5-carboxamide] was tested, and the “Observed Efficacy (%)” value [1] was 38%, the “Observed Efficacy (%)” value [2] was 12.5% and the “Observed Efficacy (%)” value [3] was 0%. The pest or weed control at 0.1 ppm ([4]; 0.1 ppm) was 12.5%, the pest or weed control at 0.41 ppm ([4]; 0.41 ppm) was 50% and the pest or weed control at 1 ppm ([4]; 1 ppm) was 25%. The pest or weed control at 0.0025 ppm ([5]; 0.0025 ppm) was 0%, the pest or weed control at 0.004 ppm ([5]; 0.004 ppm) was 0% and the pest or weed control at 0.005 ppm ([5]; 0.005 ppm) was 0%. It also gave a pest or weed control at 0.02 ppm ([5]; 0.02 ppm) of 12.5%, a pest or weed control at 0.03 ppm ([5]; 0.03 ppm) of 12.5% and a pest or weed control at 0.05 ppm ([5]; 0.05 ppm) of 12.5%. It also gave a pest or weed control at 0.1 ppm ([5]; 0.1 ppm) of 12.5% and a pest or weed control at 0.5 ppm ([5]; 0.5 ppm) of 25%.

From patent US20230276803A1, “A PESTICIDALLY ACTIVE MIXTURE COMPRISING THIETANYLOXY COMPOUND, OXIDES OR SALTS THEREOF” (PI INDUSTRIES LTD., priority 2020, published 2023)
